Like-named read-outs stand apart in the source and are kept apart here. Blank lines part the entries; values can stand above or below the molecule they belong to.
Assays:
Type in all cases: cell-based, Human
HCT116 [1] = experiment: MTT cell viability, HCT116; conditions: 72 h, MTT assay, mean ± SD (n = 6), read-out: half-maximal inhibitory concentration (IC50) HCT116
Experimental: The potential cytotoxicity of 24 candidate compounds was initially evaluated at a single concentration level (5 μM). Then a full dose-response curve was plotted for each compound against different colorectal cancer cell lines (HCT116 and HT-29) by MTT assay after 72 h treatments. 4-hydroxycoumarin, OSU-CG5, and OSU-CG12 were used as positive controls. […] Compounds 9b, 9c, 9f, 9i, 11b, and 11c were selected for further studies to determine the full dose-response survival curves using different concentrations (0.1–20 µM) against CRC cell lines and normal fibroblast cell line (F180) at different time points (Fig. 2A–2F and supplementary material Page S63 and S64).
Human colorectal carcinoma cell lines (HCT116) and (HT-29) were obtained from the European Collection of Cell Cultures (ECACC, UK). The cell lines were cultured in Roswell Park Memorial Institute medium (RPMI-1640, Sigma-Aldrich-St. Louis, MO, USA) supplemented with 10% fetal bovine serum (Sigma-Aldrich-St. Louis, MO, USA) and 1% penicillin/streptomycin (Sigma-Aldrich- Louis, MO, USA). F180 cell line (Human Normal Fibroblast), was kindly given by professor Ekkehard Dikomey (University Cancer Center, Hamburg University, Hamburg, Germany) and were cultured in Dulbecco’s Modified Eagle’s medium (DMEM, Sigma-Aldrich-St. Louis, MO, USA) supplemented with 10% fetal bovine serum (Sigma-Aldrich-St. Louis, MO, USA) and 1% penicillin/streptomycin (Sigma-Aldrich- Louis, MO, USA). All cell incubations were done at 37 °C in a humidified atmosphere of 5% CO2.
Cell viability was assessed using, 3-(4,5-dimethylthiazol-2-yl)-2,5-diphenyltetrazolium bromide (MTT) assay as previously described. In summary, cancer cell lines or F180 were seeded in complete medium at the density of 3 × 10^3/well and 5 × 10^3/well respectively in 96 well flat-bottom plates. After 24 h, cells were incubated with the candidate compounds at the indicated concentration for (24, 48 or 72 h). DMSO was used as vehicle control and 4-Hydroxycoumarin was purchased from (Sigma-Aldrich, St. Louis, MO, USA) and Cisplatin from Hospira UK Ltd. At the end of treatment, the media were aspirated from each well and incubated with 200 µL of MTT tetrazolium dye (Sigma-Aldrich, St. Louis, MO, USA) at a final concentration of 0.5 mg/ml for 2 h at 37 °C. The reduced MTT crystals were solubilized in 200 µl/well of DMSO and the absorbance was measured at 570 nm using a microplate reader (Thermo-Scientific, Vantaa, Finland).

[2] = system: Caspase 3/7 activities in HT-29 cells; experiment: Caspase 3/7 activity assay, HT-29; conditions: HT-29, 72 h
Experimental: (§1) Based on this, the energy restriction mediated anticancer activity of the new coumarin tagged aminothiazole derivatives was investigated. The expression levels of PARP, p-Akt, Akt, p-AMPK, AMPK, β-TrCP, LC3A/B-I, LC3A/B-II, caspase-3, cyclin D1, and Bcl-2 proteins were determined by Western blot analysis after 72 h treatment of HT-29 and HCT116 at different concentrations based on the IC50 values of each compound (Fig. 3A,B). […] Moreover, the treatment with 9b and 9f induced caspase 3/7 activation, which was detected by caspase 3/7 activity assay and confirmed by Western blot. The activation of caspases was significant in 9b in both cell lines and significant with 9f in HCT116 cells only and minimal in HT-29 cells (Fig. 3C,D). On the other hand, both 9b and 9f induced dose-dependent proteolytic processing of PARP. […] Besides, the protein expression level of the anti-apoptotic protein, Bcl-2, was reduced in HCT116 upon treatment with both compounds.
Caspase-3/7 activities in HT-29 and HCT116 cells treated with candidate compounds were measured using Caspase-Glo 3/7 assay kit (Promega, Madison, WI, USA) following the manufacturer’s instructions. […] 50 µL of lysate and 50 µL of caspase substrate were added to a white opaque 96-well plate, and the luminescence was measured by Varioskan Flash multimode reader (Thermo-Scientific, Vantaa, Finland)

HT-29 = experiment: Western blot analysis, HT-29; conditions: for expression of LC3A-II and LC3B-II: HT-29 (CRC cell lines); for expression of LC3A-II and LC3B-II / p-mTOR and p-p70S6K levels: 72 h; for AMPK activation through phosphorylation / Akt phosphorylation / PARP cleavage: HT-29, 72 h
Experimental: as §1
(§2) Following 72 h of treatment, cells were lysed and the extracted proteins were quantified using DC protein assay kit (Bio-Rad, Hercules, CA, USA) following the manufacturer’s instructions. Proteins were resolved on 8% or 12% SDS-poly-acrylamide gels, then transferred onto a nitrocellulose membrane using a semi-dry transfer cell. The membranes were blocked in TBS-T containing 5% non-fat milk for 1 h and incubated overnight at 4 °C overnight with indicated primary antibodies (Cell Signaling Technologies, Beverly, MA, USA) and then incubated with goat anti-mouse or anti-rabbit secondary antibody (Cell Signaling Technologies, Beverly, MA, USA) for 1 h at room temperature. Detection was done using chemiluminescence substrate (Bio-Rad, Hercules, CA, USA). β-actin (Cell Signaling Technologies, Beverly, MA, USA) was used as a loading control.
(§3) The blots were captured with ChemiDoc Imaging System (Bio-Rad, Hercules, CA, USA) and bands were visualized with the Image Lab v5.2.1 software (Bio-Rad, Hercules, CA, USA).

HCT116 [3] = experiment: Western blot analysis, HCT116; conditions: for expression of LC3A-II and LC3B-II: HCT116 (CRC cell lines)
Experimental: as §1, §2, §3

[4] = HCT116, higher concentrations, except at doses 1 and 2 µM where induced p-mTOR was observed

IC50 (HCT116 [1]): 530 ± 77 nM
IC50 (HCT116 [1]; Homo sapiens, HCT-116, 72 h): 380 nM
SMILES: Cc1cc(=O)oc2cc(Nc3nc(-c4ccc(Br)cc4)cs3)ccc12 [Compound 9b, 7-(4-(4-Bromophenyl)thiazol-2-ylamino)-4-methyl-2H-chromen-2-one]
activation of caspases (caspase 3/7) [2]: significant
expression of LC3A-II and LC3B-II (HT-29): induced the expression of LC3A-II and LC3B-II
p-mTOR and p-p70S6K levels (HT-29; HT-29, 0.5 µM): initial increase
AMPK activation through phosphorylation (HT-29): enhancement of AMPK activation
Akt phosphorylation (HT-29): inhibition of Akt phosphorylation
PARP cleavage (HT-29): induced PARP cleavage
p-mTOR and p-p70S6K levels (HT-29; HT-29, higher concentrations): decrease
expression of LC3A-II and LC3B-II (HCT116 [3]; 72 h, Western blot): induced the expression of LC3A-II and LC3B-II
p-mTOR and p-p70S6K levels (HCT116 [3]; HCT116, 0.5 µM, 72 h, Western blot): initial increase
AMPK activation through phosphorylation (HCT116 [3]; HCT116, 72 h, Western blot): enhancement of AMPK activation
PARP cleavage (HCT116 [3]; HCT116, 72 h, Western blot): induced PARP cleavage
expression of β-TrCP and cyclin D (HCT116 [3]; HCT116, 72 h, Western blot): dose-dependent downregulation
protein expression level of Bcl-2 (HCT116 [3]; HCT116, 72 h, Western blot): reduced
p-mTOR and p-p70S6K levels (HCT116 [3]; [4]): decrease

IC50 (HCT116 [1]): 2560 ± 553 nM
IC50 (HCT116 [1]; Homo sapiens, HCT-116, 72 h): 3960 nM
SMILES: Cc1cc(=O)oc2cc(Nc3nc(-c4cccc([N+](=O)[O-])c4)cs3)ccc12 [Compound 9f, 4-Methyl-7-(4-(3-Nitrophenyl)thiazol-2-ylamino)-2H-chromen-2-one]
activation of caspases (caspase 3/7) [2]: minimal
expression of LC3A-II and LC3B-II (HT-29): induced the expression of LC3A-II and LC3B-II
AMPK activation through phosphorylation (HT-29): enhancement of AMPK activation
Akt phosphorylation (HT-29): inhibition of Akt phosphorylation
PARP cleavage (HT-29): PARP cleavage only in HT-29 cells at the highest tested dose
p-mTOR and p-p70S6K levels (HT-29; HT-29, higher concentrations): decrease
expression of LC3A-II and LC3B-II (HCT116 [3]; 72 h, Western blot): induced the expression of LC3A-II and LC3B-II
AMPK activation through phosphorylation (HCT116 [3]; HCT116, 72 h, Western blot): enhancement of AMPK activation
protein expression level of Bcl-2 (HCT116 [3]; HCT116, 72 h, Western blot): reduced
Akt phosphorylation (HCT116 [3]; HCT116, high concentrations, 72 h, Western blot): induced Akt phosphorylation
p-mTOR and p-p70S6K levels (HCT116 [3]; [4]): decrease

— article PMC7031302, “Design and synthesis of new energy restriction mimetic agents: Potent anti-tumor activities of hybrid motifs of aminothiazoles and coumarins” (Scientific Reports, 2020)
